According to patent US9499535B2, “Kinase inhibitors” (ORIGENIS GMBH, priority 2011, dated 2016):

What was measured:
LRRK2 = LRRK2 (Homo sapiens, UniProt Q5S007); assay: LRRK2 assay (LanthaScreen Eu Kinase Binding Assay); conditions: 5 nM LRRK2, 10 nM tracer 236, RT 1 h; read-out: LRRK2 Activites: IC50
Method in brief: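 IC50 was derived from a sigmoidal dose-response fit with variable slope, plotting emission ratio against inhibitor concentration. The read-out is loss of FRET between a europium-labelled anti-tag antibody on the kinase and a tracer displaced by inhibitor.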

MYLK = MYLK (Homo sapiens, UniProt Q15746); assay: MYLK assay (LanthaScreen Eu Kinase Binding Assay); conditions: 5 nM MYLK, 30 nM tracer 236, RT 1 h; read-out: MYLK Activites: IC50
Procedure: In the assay LanthaScreen™ Eu Kinase Binding Assay by Invitrogen Corporation (Carlsbad) the effect of invention of a compound on the phosphorylation is determined by measurement of fluorescence intensity emission ratio based on the binding and displacement of a proprietary, Alexa Fluor® 647-labeled, ATP-competitive kinase inhibitor scaffold (kinase tracer) to the kinase of interest as described above.
To the wells of an 384 well small volume plate (Greiner, Frickenhausen) are added (i) the compound under test in 5% DMSO/distilled water (5 μl), (ii) 5 μl of the kinase antibody mixture resulting in a final concentration 5 nM MYLK, 2 nM EU-Anti-GST antibody in 1× kinase buffer A. The reaction was started with addition of (iii) 5 μl resulting in a final concentration of 30 nM tracer 236. The assay plate was incubated at RT for 1 h and fluorescence intensitiy readings were collected using a TECAN M1000 at two wavelengthes of λex 340/λem 615 nm and λex 340/λem 665 nm with a delay time of 100 μs and an integration time of 200 μs after 60 minutes. The emission ratio was calculated by division of the acceptor/tracer emission ([…]) by the antibody/donor emission ([…]). The inhibitor concentration was plotted versus the emission ratio to determine the IC50 using XLFit 5.0 (IDBS, Guildford) to fit to a sigmoidal dose response curve with a variable slope.

SYK kinase = molecular target: T1, SYK kinase (Homo sapiens, UniProt P43405); assay: SYK assay (OMNIA Kinase Assay, Invitrogen); assay type: biochemical; conditions: apparent Ki calculated from the IC50 using the Cheng-Prusoff equation; 1 mM ATP, 10 μM Peptide Substrate; read-out: SYK Activities: Ki
T1 construct: purchased Invitrogen, Carlsbad
Method in brief: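 Reaction velocities were measured from kinetic fluorescence reads (360/485 nm, every 30 s over 30 min) of Mg2+-chelated SOX signal. Conditions were 1 mM ATP, 10 μM Omnia Tyr 7 peptide and 0.2 mM DTT at 30° C. Sigmoidal IC50 fits were converted to apparent Ki using Cheng-Prusoff.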

Chain of MYLK (Q15746 whole entry): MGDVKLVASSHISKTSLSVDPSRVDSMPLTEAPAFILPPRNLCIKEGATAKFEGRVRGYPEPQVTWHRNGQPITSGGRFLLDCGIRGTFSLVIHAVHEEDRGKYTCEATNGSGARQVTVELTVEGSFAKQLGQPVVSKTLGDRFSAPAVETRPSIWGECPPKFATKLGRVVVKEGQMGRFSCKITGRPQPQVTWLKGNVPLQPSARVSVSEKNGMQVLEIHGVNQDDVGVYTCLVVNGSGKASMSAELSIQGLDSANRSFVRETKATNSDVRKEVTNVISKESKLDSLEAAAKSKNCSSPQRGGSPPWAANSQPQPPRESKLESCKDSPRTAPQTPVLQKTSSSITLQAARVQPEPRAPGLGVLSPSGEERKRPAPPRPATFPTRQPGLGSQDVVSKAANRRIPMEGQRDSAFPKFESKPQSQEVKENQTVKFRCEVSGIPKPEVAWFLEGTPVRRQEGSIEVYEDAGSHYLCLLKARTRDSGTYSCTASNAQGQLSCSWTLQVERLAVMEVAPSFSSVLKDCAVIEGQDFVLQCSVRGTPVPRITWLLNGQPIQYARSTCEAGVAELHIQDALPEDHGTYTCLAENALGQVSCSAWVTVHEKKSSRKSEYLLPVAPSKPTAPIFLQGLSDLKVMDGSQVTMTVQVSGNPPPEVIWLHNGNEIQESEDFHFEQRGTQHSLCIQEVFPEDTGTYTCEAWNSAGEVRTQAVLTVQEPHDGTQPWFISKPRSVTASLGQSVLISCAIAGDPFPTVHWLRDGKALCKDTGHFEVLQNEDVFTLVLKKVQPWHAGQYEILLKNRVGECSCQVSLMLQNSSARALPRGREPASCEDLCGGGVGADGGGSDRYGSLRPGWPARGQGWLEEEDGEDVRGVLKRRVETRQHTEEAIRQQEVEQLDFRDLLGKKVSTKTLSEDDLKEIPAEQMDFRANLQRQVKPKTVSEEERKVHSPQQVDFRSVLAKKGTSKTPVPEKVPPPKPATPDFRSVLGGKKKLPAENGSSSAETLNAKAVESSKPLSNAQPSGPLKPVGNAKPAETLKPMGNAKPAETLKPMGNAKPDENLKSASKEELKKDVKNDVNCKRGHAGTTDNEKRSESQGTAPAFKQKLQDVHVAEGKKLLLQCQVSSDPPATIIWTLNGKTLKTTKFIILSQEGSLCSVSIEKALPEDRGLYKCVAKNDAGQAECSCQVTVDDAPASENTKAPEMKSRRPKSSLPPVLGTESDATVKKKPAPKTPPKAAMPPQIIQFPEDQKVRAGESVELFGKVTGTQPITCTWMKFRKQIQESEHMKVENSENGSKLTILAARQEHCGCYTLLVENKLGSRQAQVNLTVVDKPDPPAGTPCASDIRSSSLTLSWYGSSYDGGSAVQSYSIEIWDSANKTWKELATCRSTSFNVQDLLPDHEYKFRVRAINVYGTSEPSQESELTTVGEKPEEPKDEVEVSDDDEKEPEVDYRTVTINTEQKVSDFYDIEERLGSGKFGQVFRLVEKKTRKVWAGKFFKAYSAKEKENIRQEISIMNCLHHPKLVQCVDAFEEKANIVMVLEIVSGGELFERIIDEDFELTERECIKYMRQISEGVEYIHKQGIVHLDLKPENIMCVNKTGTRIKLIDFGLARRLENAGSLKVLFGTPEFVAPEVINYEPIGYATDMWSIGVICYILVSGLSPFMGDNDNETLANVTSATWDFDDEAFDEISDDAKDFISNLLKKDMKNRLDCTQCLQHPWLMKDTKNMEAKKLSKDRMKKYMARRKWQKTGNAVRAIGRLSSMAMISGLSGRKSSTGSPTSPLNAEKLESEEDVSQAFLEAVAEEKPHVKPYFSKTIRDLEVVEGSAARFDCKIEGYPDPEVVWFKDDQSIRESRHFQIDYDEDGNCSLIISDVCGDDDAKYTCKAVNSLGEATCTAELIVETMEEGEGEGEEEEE
Chain of LRRK2 (Q5S007 970-2527 limits assumed): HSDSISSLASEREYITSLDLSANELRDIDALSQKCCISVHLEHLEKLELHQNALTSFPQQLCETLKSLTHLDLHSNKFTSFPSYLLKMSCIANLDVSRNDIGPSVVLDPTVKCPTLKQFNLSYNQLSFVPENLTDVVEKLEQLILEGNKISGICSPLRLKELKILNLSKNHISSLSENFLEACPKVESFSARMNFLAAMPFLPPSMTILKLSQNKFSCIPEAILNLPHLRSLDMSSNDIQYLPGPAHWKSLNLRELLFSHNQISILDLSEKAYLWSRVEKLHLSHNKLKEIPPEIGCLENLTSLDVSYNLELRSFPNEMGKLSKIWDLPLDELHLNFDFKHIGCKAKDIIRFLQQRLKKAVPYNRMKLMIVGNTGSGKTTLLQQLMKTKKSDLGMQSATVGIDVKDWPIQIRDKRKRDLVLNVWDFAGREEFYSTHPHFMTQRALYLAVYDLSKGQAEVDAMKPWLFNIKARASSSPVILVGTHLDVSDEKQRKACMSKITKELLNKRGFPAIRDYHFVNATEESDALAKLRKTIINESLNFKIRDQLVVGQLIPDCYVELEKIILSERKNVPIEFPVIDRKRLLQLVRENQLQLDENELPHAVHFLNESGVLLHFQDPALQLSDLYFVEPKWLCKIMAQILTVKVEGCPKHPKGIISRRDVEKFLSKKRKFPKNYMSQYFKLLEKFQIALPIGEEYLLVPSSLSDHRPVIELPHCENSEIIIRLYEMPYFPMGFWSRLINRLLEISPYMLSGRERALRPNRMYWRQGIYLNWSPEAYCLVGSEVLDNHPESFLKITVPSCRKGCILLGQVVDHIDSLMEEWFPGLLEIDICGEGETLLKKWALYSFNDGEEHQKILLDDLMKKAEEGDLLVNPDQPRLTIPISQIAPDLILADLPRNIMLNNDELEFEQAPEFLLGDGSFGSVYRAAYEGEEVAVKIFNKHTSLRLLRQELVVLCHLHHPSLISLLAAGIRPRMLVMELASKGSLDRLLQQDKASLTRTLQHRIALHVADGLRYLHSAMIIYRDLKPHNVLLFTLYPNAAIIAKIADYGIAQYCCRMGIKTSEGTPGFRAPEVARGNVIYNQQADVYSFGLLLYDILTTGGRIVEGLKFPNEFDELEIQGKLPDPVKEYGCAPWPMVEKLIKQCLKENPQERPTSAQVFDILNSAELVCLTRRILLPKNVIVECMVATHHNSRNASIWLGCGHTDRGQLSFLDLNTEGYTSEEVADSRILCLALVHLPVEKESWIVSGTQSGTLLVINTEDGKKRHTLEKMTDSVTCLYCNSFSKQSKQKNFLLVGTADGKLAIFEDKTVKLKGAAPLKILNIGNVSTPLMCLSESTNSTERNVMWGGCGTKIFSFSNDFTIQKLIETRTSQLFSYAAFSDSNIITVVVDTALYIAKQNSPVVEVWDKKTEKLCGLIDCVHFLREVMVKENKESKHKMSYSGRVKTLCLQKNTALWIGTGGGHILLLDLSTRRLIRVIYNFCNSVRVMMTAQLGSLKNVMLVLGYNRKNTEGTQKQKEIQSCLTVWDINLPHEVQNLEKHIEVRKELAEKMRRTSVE

Structure (SMILES) | IC50 (LRRK2) [µM] | IC50 (MYLK) [µM] | Ki (SYK kinase) [µM]
COc1ccc2nc(Nc3ccc(N4CCN(C5CC5)CC4)cc3)c3n[nH]cc3c2c1 [Example #179, [4-(4-Cyclopropyl-piperazin-1-yl)-phenyl]-(8-methoxy-2H-pyrazolo[3,4-c]quinolin-4-yl)-amine] | 0.1 to 1 | < 5 | 0.01 to 0.1
COc1ccc2nc(Nc3ccc(OC)c(O)c3)c3n[nH]cc3c2c1 [Example #118, 2-Methoxy-5-(8-methoxy-2H-pyrazolo[3,4-c]quinolin-4-ylamino)-phenol] | 0.01 to 0.1 | < 5 | < 0.01
COc1cc(OC)c2nc(Nc3ccc(N4CCN(C5CC5)CC4)cc3)c3n[nH]cc3c2c1 [Example #252, [4-(4-Cyclopropyl-piperazin-1-yl)-phenyl]-(6,8-dimethoxy-2H-pyrazolo[3,4-c]quinolin-4-yl)-amine] | 0.1 to 1 | < 5 | 0.1 to 1
COc1cc(OC)c2nc(Nc3ccc(OC)c(OC)c3)c3n[nH]cc3c2c1 [Example #251, (3,4-Dimethoxy-phenyl)-(6,8-dimethoxy-2H-pyrazolo[3,4-c]quinolin-4-yl)-amine] | 0.1 to 1 | < 5 | < 0.01
COc1cccc2c1nc(Nc1ccc3c(c1)OCCO3)c1n[nH]cc12 [Example #258, (2,3-Dihydro-benzo[1,4]dioxin-6-yl)-(6-methoxy-2H-pyrazolo[3,4-c]quinolin-4-yl)-amine] | 0.1 to 1 | < 5 | 0.1 to 1
COc1ccc2nc(Nc3ccc(CC(N)=O)cc3)c3[nH]ncc3c2c1 [Example #112, 2-[4-(8-Methoxy-3H-pyrazolo[3,4-c]quinolin-4-ylamino)-phenyl]-acetamide] | 0.1 to 1 | < 5 | 0.01 to 0.1
COc1ccc2nc(Nc3cccc(N4CCNCC4)c3)c3n[nH]cc3c2c1 [Example #221, (8-Methoxy-2H-pyrazolo[3,4-c]quinolin-4-yl)-(3-piperazin-1-yl-phenyl)-amine] | 0.1 to 1 | < 5 | 0.1 to 1
CN1CCN(c2ccc(Nc3nc4ccc(I)cc4c4cn[nH]c34)cc2)CC1 [Example #333, 8-iodo-N-(4-(4-methylpiperazin-1-yl)phenyl)-3H-pyrazolo[3,4-c]quinolin-4-amine] | 0.1 to 1 | < 5 | < 0.01
COc1ccc2nc(Nc3ccc(C4CCN(C)CC4)cc3)c3n[nH]cc3c2c1 [Example #102, (8-Methoxy-2H-pyrazolo[3,4-c]quinolin-4-yl)-[4-(1-methyl-piperidin-4-yl)-phenyl]-amine] | 0.1 to 1 | < 5 | 0.01 to 0.1
CCN1CCN(c2ccc(Nc3nc4c(OC)cccc4c4c[nH]nc34)cc2)CC1 [Example #239, [4-(4-Ethyl-piperazin-1-yl)-phenyl]-(6-methoxy-2H-pyrazolo[3,4-c]quinolin-4-yl)-amine] | 0.1 to 1 | < 5 | 0.01 to 0.1
COc1ccc2nc(Nc3ccc(N(C)C4CCN(C)CC4)cc3)c3n[nH]cc3c2c1 [Example #192, N-(8-Methoxy-2H-pyrazolo[3,4-c]quinolin-4-yl)-N′-methyl-N′-(1-methyl-piperidin-4-yl)-benzene-1,4-diamine] | 0.01 to 0.1 | < 5 | 0.01 to 0.1
COc1ccc2nc(Nc3cccc(S(C)(=O)=O)c3)c3n[nH]cc3c2c1 [Example #320, 8-methoxy-N-(3-(methylsulfonyl)phenyl)-2H-pyrazolo[3,4-c]quinolin-4-amine] | 0.1 to 1 | < 5 | 0.1 to 1
COc1ccc2c(c1)nc(Nc1ccc3c(c1)NC(=O)CO3)c1n[nH]cc12 [Example #266, 6-((7-methoxy-2H-pyrazolo[3,4-c]quinolin-4-yl)amino)-2H-benzo[b][1,4]oxazin-3(4H)-one] | 0.01 to 0.1 | < 5 | < 0.01
COc1ccc2nc(Nc3ccc(CCN4CCOCC4)cc3)c3n[nH]cc3c2c1 [Example #193, (8-Methoxy-2H-pyrazolo[3,4-c]quinolin-4-yl)-[4-(2-morpholin-4-yl-ethyl)-phenyl]-amine] | 0.1 to 1 | < 5 | 0.01 to 0.1
COc1ccc2c(c1)nc(Nc1ccc(N3CCN(C4CC4)CC3)cc1)c1n[nH]cc12 [Example #262, [4-(4-Cyclopropyl-piperazin-1-yl)-phenyl]-(7-methoxy-2H-pyrazolo[3,4-c]quinolin-4-yl)-amine] | 0.1 to 1 | < 5 | 0.01 to 0.1
COc1cccc2c1nc(Nc1ccc3[nH]c(C)nc3c1)c1n[nH]cc12 [Example #248, (6-Methoxy-2H-pyrazolo[3,4-c]quinolin-4-yl)-(2-methyl-1H-benzoimidazol-5-yl)-amine] | 0.1 to 1 | < 5 | 0.1 to 1
COc1ccc2nc(Nc3ccc(N4CCN(C)CC4)cc3)c3n[nH]cc3c2c1 [Example #42, (8-Methoxy-2H-pyrazolo[3,4-c]quinolin-4-yl)-[4-(4-methyl-piperazin-1-yl)-phenyl]-amine] | 0.01 to 0.1 | < 5 | 0.01 to 0.1
COc1ccc(Nc2nc3c(OC)cccc3c3c[nH]nc23)cc1OC [Example #167, (3,4-Dimethoxy-phenyl)-(6-methoxy-2H-pyrazolo[3,4-c]quinolin-4-yl)-amine] | 0.1 to 1 | < 5 | 0.01 to 0.1
COc1ccc2nc(Nc3cccc(C(=N)N)c3)c3n[nH]cc3c2c1 [Example #49, 3-(8-Methoxy-2H-pyrazolo[3,4-c]quinolin-4-ylamino)-benzamidine] | 0.1 to 1 | < 5 | 0.1 to 1
COc1ccc2nc(Nc3cccc([S+](C)[O-])c3)c3n[nH]cc3c2c1 (stereo not shown) [Example #346, 8-methoxy-N-(3-(methylsulfinyl)phenyl)-2H-pyrazolo[3,4-c]quinolin-4-amine] | 0.1 to 1 | < 5 | 0.1 to 1
COc1ccc2nc(Nc3ccc4[nH]c(=O)[nH]c4c3)c3n[nH]cc3c2c1 [Example #71, 5-(8-Methoxy-2H-pyrazolo[3,4-c]quinolin-4-ylamino)-1,3-dihydro-benzoimidazol-2-one] | 0.1 to 1 | < 5 | 0.01 to 0.1
COc1cccc2nc(Nc3ccc4c(c3)NC(=O)CC4)c3[nH]ncc3c12 [Example #339, 7-((9-methoxy-3H-pyrazolo[3,4-c]quinolin-4-yl)amino)-3,4-dihydroquinolin-2(1H)-one] | 0.01 to 0.1 | < 5 | 0.01 to 0.1
COc1ccc2nc(Nc3ccc(N4CCN(C(C)C)CC4)cc3)c3n[nH]cc3c2c1 [Example #271, [4-(4-Isopropyl-piperazin-1-yl)-phenyl]-(8-methoxy-2H-pyrazolo[3,4-c]quinolin-4-yl)-amine] | 0.01 to 0.1 | < 5 | < 0.01
COc1ccc2nc(Nc3cccc(N)c3)c3n[nH]cc3c2c1 [Example #44, N-(8-Methoxy-2H-pyrazolo[3,4-c]quinolin-4-yl)-benzene-1,3-diamine] | 0.01 to 0.1 | < 5 | 0.01 to 0.1
COc1cccc2nc(Nc3ccc(CN(C)C)cc3)c3[nH]ncc3c12 [Example #353, N-(4-((dimethylamino)methyl)phenyl)-9-methoxy-3H-pyrazolo[3,4-c]quinolin-4-amine] | 0.01 to 0.1 | < 5 | 0.01 to 0.1
COc1ccc2nc(Nc3ccc(C(=O)N(C)CCN(C)C)cc3)c3n[nH]cc3c2c1 [Example #300, N-(2-(dimethylamino)ethyl)-4-((8-methoxy-2H-pyrazolo[3,4-c]quinolin-4-yl)amino)-N-methylbenzamide] | 0.01 to 0.1 | < 5 | 0.01 to 0.1
COc1cccc2nc(Nc3ccc(N4CCN(C(C)=O)CC4)cc3)c3[nH]ncc3c12 [Example #340, 1-(4-(4-((9-methoxy-3H-pyrazolo[3,4-c]quinolin-4-yl)amino)phenyl)piperazin-1-yl)ethan-1-one] | 0.01 to 0.1 | < 5 | 0.01 to 0.1
COc1ccc2nc(Nc3ccc(C(=O)N4CCCN(C)CC4)cc3)c3n[nH]cc3c2c1 [Example #304, (4-((8-methoxy-2H-pyrazolo[3,4-c]quinolin-4-yl)amino)phenyl)(4-methyl-1,4-diazepan-1-yl)methanone] | 0.1 to 1 | < 5 | 
COc1ccc2nc(Nc3cccc(C(C)=O)c3)c3n[nH]cc3c2c1 [Example #127, 1-[3-(8-Methoxy-2H-pyrazolo[3,4-c]quinolin-4-ylamino)-phenyl]-ethanone] | 0.1 to 1 | < 5 | 
